Data on 13 molecules can be found in patent publication US10072023B2, “Diarylethene compounds and uses thereof” (SWITCH MATERIALS, INC., priority 2011, dated 2018).

The series is described as follows: Absorbance at photostationary state (PSS) under simulated sunlight or 365 nm light. It counts as physicochemical. The conditions noted are these: for Absorbance at PSS, 365 nm: 365 nm light source; for Absorbance at PSS, 365 nm / Absorbance at PSS, full / Absorbance at PSS, +UV / λ max: 2.0×10^−5 M in triglyme; for sensitivity index: ratio of PSS under 365 nm light to PSS under full spectrum light (without UV blocking film); for Absorbance at PSS, full: simulated sunlight (QSUN solar simulator), no UV blocking film; for Absorbance at PSS, +UV: simulated sunlight with UV blocking film (cutoff 370 nm); for λ max: wavelength of maximum absorbance in the visible range, ring-closed isoform. Set-up: λ max: unit not given here. As for the experimental part: Absorbance at a PSS for selected compounds was measured at 2.0×10^−5 M in triglyme in the absence (full) or presence (+UV) of a UV blocking film with a UV cutoff wavelength of 370 nm (10% transmission at 370 nm), using simulated sunlight (QSUN solar simulator) as a light source, or a 365 nm light source; these PSS are reported in Tables 1.5. […] “Switch” refers to the ability (yes or no) of the compound to be reversibly converted under photochromic and electrochromic conditions between a ring-open isomer and ring-closed isomer.
A sensitivity index (SI) is a ratio of the PSS under 365 nm light to the PSS under full spectrum light (without UV blocking film). SI is an indicator of the sensitivity of the compound to the composition of the incident light (a change in the ratio of UV and visible components)—photochemical ring-opening is induced by a portion of the visible light spectrum.
Photostationary State (PSS) UV/Vis spectra are obtained using an OceanOptics™ Spectrophotometer until absorption in the visible region of the spectrum stabilizes. A 2×10^−5M solution of compound in solvent is prepared, and photofaded using visible light until absorption in the visible region of the spectrum stabilizes. The sample is then irradiated with simulated sunlight (QSUN SS-150 Solar Simulator with xenon arc lamp) until the absorption spectrum stabilizes. To obtain PSS in the presence of a UV blocking film, a second sample is prepared and irradiated as described, with a UV blocking film inserted in the light path when irradiating.

For the molecule `COc1ccc(-c2sc(-c3ccc(/C=C/C=C/c4ccccc4)cc3)cc2C2=C(c3cc(-c4ccc(/C=C/C=C/c5ccccc5)cc4)sc3-c3ccc(OC)cc3)C(F)(F)C(F)(F)C2(F)F)cc1` [S089, 3,3′-(perfluorocyclopent-1-ene-1,2-diyl)bis(2-(4-methoxyphenyl)-5-(4-((1E,3E)-4-phenylbuta-1,3-dien-1-yl)phenyl)thiophene)], the “Absorbance at PSS, 365 nm” value was 0.564; the sensitivity index is listed as 4.12; the “Absorbance at PSS, full” value is on record as 0.137; the “Absorbance at PSS, +UV” value is listed as 0.126. The same molecule showed a λ max of 656.

With `CC(C)(C)c1ccc(-c2cc(C3=C(c4cc(-c5ccc(C(C)(C)C)s5)sc4-c4ccc(N5CCOCC5)cc4)C(F)(F)C(F)(F)C3(F)F)c(-c3ccc(N4CCOCC4)cc3)s2)s1` [S112, 4,4′-((4,4″-(perfluorocyclopent-1-ene-1,2-diyl)bis(5′-(tert-butyl)-[2,2′-bithiophene]-5,4-diyl))bis(4,1-phenylene))dimorpholine], the “Absorbance at PSS, 365 nm” value is on record as 0.318; the sensitivity index is 1.14; the “Absorbance at PSS, full” value is recorded as 0.278; the “Absorbance at PSS, +UV” value is 0.246. For the same molecule, the λ max is recorded as 663.

As for `COc1ccc(-c2sc(-c3ccc(/C=C/c4ccccc4)cc3)cc2C2=C(c3cc(-c4ccc(/C=C/c5ccccc5)cc4)sc3-c3ccc(OC)cc3)C(F)(F)C(F)(F)C2(F)F)cc1` [S088, (E)-3,3′-(perfluorocyclopent-1-ene-1,2-diyl)bis(2-(4-methoxyphenyl)-5-(4-((E)-styryl)phenyl)thiophene)], the “Absorbance at PSS, 365 nm” value is given as 0.457; the sensitivity index is 2.26; the “Absorbance at PSS, full” value is 0.202; the “Absorbance at PSS, +UV” value was 0.132. For the same molecule, the λ max is given as 656.

For the molecule `Cc1ccc(-c2cc(C3=C(c4cc(-c5ccc(C)s5)sc4-c4ccc(C)s4)C(F)(F)C(F)(F)C3(F)F)c(-c3ccc(C)s3)s2)s1` [S007, 3′,3″″-(perfluorocyclopent-1-ene-1,2-diyl)bis(5,5″-dimethyl-2,2′:5′,2″-terthiophene)], the “Absorbance at PSS, 365 nm” value was 0.353; the sensitivity index was 1.67; the “Absorbance at PSS, full” value is listed as 0.212; the “Absorbance at PSS, +UV” value was 0.154. This molecule displayed a λ max of 650.

With `Oc1ccc(-c2cc(C3=C(c4cc(-c5ccc(O)cc5)sc4-c4ccc(O)cc4)C(F)(F)C(F)(F)C3(F)F)c(-c3ccc(O)cc3)s2)cc1` [S084, 3,3′-(perfluorocyclopent-1-ene-1,2-diyl)bis(2,5-bis(4-hydroxyphenyl)thiophene)], the “Absorbance at PSS, 365 nm” value was 0.23; the sensitivity index is recorded as 2.56; the “Absorbance at PSS, full” value is recorded as 0.09; the “Absorbance at PSS, +UV” value is listed as 0.051. For the same molecule, the λ max is recorded as 625.

For `N#Cc1ccc(-c2ccc(-c3cc(C4=C(c5cc(-c6ccc(-c7ccc(C#N)s7)s6)sc5-c5cccs5)C(F)(F)C(F)(F)C4(F)F)c(-c4cccs4)s3)s2)s1` [S037, 4″,4″″″-(perfluorocyclopent-1-ene-1,2-diyl)bis(([2,2′:5′,2″:5″,2″′-quaterthiophene]-5-carbonitrile))], the “Absorbance at PSS, 365 nm” value is given as 0.442; the sensitivity index is given as 1.18; the “Absorbance at PSS, full” value is 0.375; the “Absorbance at PSS, +UV” value is recorded as 0.355. This molecule also displayed a λ max of 680.

In the case of `COc1ccc(-c2sc(-c3ccc(OCCOc4ccc(N(c5ccc(Cl)cc5)c5ccc(Cl)cc5)cc4)cc3)cc2C2=C(c3cc(-c4ccc(OCCOc5ccc(N(c6ccc(Cl)cc6)c6ccc(Cl)cc6)cc5)cc4)sc3-c3ccc(OC)cc3)C(F)(F)C(F)(F)C2(F)F)cc1` [S090, 4,4′-(((((4,4′-(perfluorocyclopent-1-ene-1,2-diyl)bis(5-(4-methoxyphenyl)thiophene-4,2-diyl))bis(4,1-phenylene))bis(oxy))bis(ethane-2,1-diyl))bis(oxy))bis(N,N-bis(4-chlorophenyl)aniline)], the “Absorbance at PSS, 365 nm” value was 0.183; the sensitivity index was 1.71; the “Absorbance at PSS, full” value is recorded as 0.107; the “Absorbance at PSS, +UV” value is given as 0.058. The same molecule showed a λ max of 624.

Regarding `O=C(O)c1ccc(-c2cc(C3=C(c4cc(-c5ccc(C(=O)O)s5)sc4-c4ccc(C(=O)O)s4)C(F)(F)C(F)(F)C3(F)F)c(-c3ccc(C(=O)O)s3)s2)s1` [S024], the “Absorbance at PSS, 365 nm” value is recorded as 0.102; the sensitivity index is 5.10; the “Absorbance at PSS, full” value is 0.02; the “Absorbance at PSS, +UV” value was 0.018. The molecule further had a λ max of 650.

With `COc1ccc2c(C3=C(c4c(-c5ccc(C(C)(C)C)cc5)oc5cc(OC)ccc45)C(F)(F)C(F)(F)C3(F)F)c(-c3ccc(C(C)(C)C)cc3)oc2c1` [S151, 3,3′-(perfluorocyclopent-1-ene-1,2-diyl)bis(2-(4-(tert-butyl)phenyl)-6-methoxybenzofuran)], the “Absorbance at PSS, 365 nm” value was 0.403; the sensitivity index is on record as 3.80; the “Absorbance at PSS, full” value is listed as 0.106; the “Absorbance at PSS, +UV” value is reported as 0.056. The λ max is recorded as 514.

In the case of `CC(C)(C)c1ccc(-c2cc(C3=C(c4cc(-c5ccc(C(C)(C)C)s5)sc4-c4ccc(OCCCCC(=O)O)cc4)C(F)(F)C(F)(F)C3(F)F)c(-c3ccc(OCCCCC(=O)O)cc3)s2)s1` [S141, 5,5′-(4,4′-(4,4′-(perfluorocyclopent-1-ene-1,2-diyl)bis(5′-tert-butyl-2,2′-bithiophene-5,4-diyl))bis(4,1-phenylene)bis(oxy))dipentanoic acid], the “Absorbance at PSS, 365 nm” value was 0.377; the “Absorbance at PSS, full” value is on record as 0.282; the “Absorbance at PSS, +UV” value is given as 0.183.

Consider `c1ccc(-c2cc(-c3nc(-c4ccccc4)sc3-c3cc(-c4ccccc4)sc3-c3ccccc3)c(-c3ccccc3)s2)cc1` [S055, 4,5-bis(2,5-diphenylthiophen-3-yl)-2-phenylthiazole], for which the “Absorbance at PSS, 365 nm” value is recorded as 0.191; the sensitivity index was 4.55; the “Absorbance at PSS, full” value is 0.042; the “Absorbance at PSS, +UV” value is listed as 0.008. Also, the λ max was 640.

Consider `FC1(F)C(c2cc(-c3ccc(/C=C/c4ccccc4)s3)sc2-c2cccs2)=C(c2cc(-c3ccc(/C=C/c4ccccc4)s3)sc2-c2cccs2)C(F)(F)C1(F)F` [S038, (E)-4′,4″″-(perfluorocyclopent-1-ene-1,2-diyl)bis(5-((E)-styryl)-2,2′:5′,2″-terthiophene)], for which the “Absorbance at PSS, 365 nm” value is given as 0.642; the sensitivity index was 1.41; the “Absorbance at PSS, full” value is listed as 0.456; the “Absorbance at PSS, +UV” value is reported as 0.431. The λ max was 690.

For the molecule `COc1cc2oc(-c3ccc(C(C)(C)C)cc3)c(C3=C(c4c(-c5ccc(C(C)(C)C)cc5)oc5cc(OC)c(OC)cc45)C(F)(F)C(F)(F)C3(F)F)c2cc1OC` [S164, 3,3′-(perfluorocyclopent-1-ene-1,2-diyl)bis(2-(4-(tert-butyl)phenyl)-5,6-dimethoxybenzofuran)], the “Absorbance at PSS, 365 nm” value is reported as 0.546; the sensitivity index is listed as 2.32; the “Absorbance at PSS, full” value is reported as 0.235; the “Absorbance at PSS, +UV” value is 0.134. Further, the λ max is 554.
